Patent US12414907B2, “Peptide having hair growth promoting activity and use thereof” (CAREGEN CO., LTD., priority 2019, dated 2025)

How the values were obtained:
β-catenin = assay: Western blotting of nuclear β-catenin in dermal papilla cells; format: cell-based, human; conditions: peptide 0.5 uM, 5 uM or 50 uM, serum-free medium, 24 hours, nuclear proteins; FIG. 3
Method: The effect of the peptide consisting of the amino acid sequence of SEQ ID NO: 1 on the activation of a proliferation mechanism of hair follicle cells was to be confirmed. In detail, human dermal papilla cells were seeded in a 6-well plate at a density of 4×10^5 cells/well, and cultured for 16 hours. The culture medium was replaced with a serum-free medium, and the peptide was added thereto at a concentration of 0.5 uM, 5 uM, or 50 uM, and the cells were cultured for 24 hours. Here, as a positive control group, 5 uM of Minoxidil was treated. The cells were harvested and nuclear proteins thereof were isolated by using a nuclear protein extraction kit (Merck, USA). Then, western blotting was performed with respect to β-catenin which is a factor related to proliferation of the dermal papilla cells by using β-catenin antibodies (Santacruz biotechnology, USA).

TGFβ-1 = assay: PCR of TGFβ-1 expression in dermal papilla cells; format: cell-based, human; conditions: peptide 0.5 uM, 5 uM or 50 uM, serum-free medium, 24 hours, PCR with GAPDH; FIG. 5
Method: The inhibitory effect of the peptide consisting of the amino acid sequence of SEQ ID NO: 1 on the expression of TGFβ-1, which is a hair loss-related factor, in hair follicle cells was to be confirmed. In detail, human dermal papilla cells were seeded in a 6-well plate at a density of 4x10^5 cells/well, and cultured for 16 hours. The culture medium was replaced with a serum-free medium, and the peptide was added thereto at a concentration of 0.5 uM, 5 uM, or 50 uM, and the cells were cultured for 24 hours. Here, as a positive control group, 5 uM of Minoxidil was treated. After the cells were harvested, RNA was extracted therefrom and used for synthesis of cNDA by using a cDNA synthesis kit and PCR pre-mix. TGFβ-1, as an androgen-inducible factor in hair follicle cells, is known to be related to hair loss.

DKK-1 = assay: Western blotting of DKK-1 expression in DHT-stimulated dermal papilla cells; format: cell-based, human; conditions: DHT 10 ug/ml as stimulator, peptide 0.5 uM, 5 uM or 50 uM, 24 hours; FIG. 4
Method: The inhibitory effect of the peptide consisting of the amino acid sequence of SEQ ID NO: 1 on the expression of DKK-1, which is a hair loss-related factor, in hair follicle cells was to be confirmed. In detail, human dermal papilla cells were seeded in a 6-well plate at a density of 4x10^5 cells/well, and cultured for 16 hours. After the culture medium was replaced with a serum-free medium, dihydrotestosterone (DHT) as a stimulator was added thereto at a concentration of 10 ug/ml while peptide was added thereto at a concentration of 0.5 uM, 5 uM, or 50 uM. Then, the cells were cultured for 24 hours. The cells were harvested and nuclear proteins thereof were isolated by using a nuclear protein extraction kit. Then, western blotting was performed by using DKK-1 antibodies (Santacruz biotechnology, USA). Here, DHT is known as a hair loss hormone that increases the expression of DKK-1, which is a hair loss-inducible factor, by activating an androgen receptor.

ERK = assay: Western blotting of phosphorylated ERK in dermal papilla cells; format: cell-based, human; conditions: peptide 0.5 uM, 5 uM or 50 uM, serum-free medium, 30 minutes; FIG. 2
Method: (§1) The effect of the peptide consisting of the amino acid sequence of SEQ ID NO: 1 on the activation of proliferation-related factors in hair follicle cells was to be confirmed. In detail, human dermal papilla cells were seeded in a 6-well plate at a density of 4×10^5 cells/well, and cultured for 16 hours. The culture medium was replaced with a serum-free medium, and the peptide was added thereto at a concentration of 0.5 uM, 5 uM, or 50 uM, and the cells were cultured for 30 minutes. Here, as a positive control group, 5 uM of Minoxidil was treated. Cell lysates were prepared by harvesting the cell, and then, western blotting was performed with respect to phosphorylated ERK and phosphorylated AKT by using p-ERK antibodies and p-AKT antibodies (Santacruz biotechnology, USA).

AKT = assay: Western blotting of phosphorylated AKT in dermal papilla cells; format: cell-based, human; conditions: peptide 0.5 uM, 5 uM or 50 uM, serum-free medium, 30 minutes; FIG. 2
Method: as §1

[1] = tested on: human hair follicle dermal papilla cells; assay: Proliferation of human hair follicle dermal papilla cells (MTT method); format: cell-based; conditions: peptide 0.5 uM, 5 uM or 50 uM, serum-free medium, 72 hours; FIG. 1
Method: The promoting effect of the peptide consisting of the amino acid sequence of SEQ ID NO: 1 on the proliferation of hair follicle cells was to be confirmed. In detail, human hair follicle dermal papilla cells were seeded in a 96-well plate at a density of 5×10^3 cells/well, and cultured for 16 hours. The culture medium was replaced with a serum-free medium, and the peptide was added thereto at a concentration of 0.5 uM, 5 uM, or 50 uM, and the cells were cultured for 72 hours. Here, as a positive control group, 5 uM of Minoxidil which is used as a hair loss treatment was treated. Afterwards, an MTT method was performed to measure the cell proliferation. In detail, 4 ug/ml of 3-(4,5-dimethylthiazol-2-yl)-2,5-diphenyltetrazolium bromide (MTT) was treated, and 4 hours later, DMSO was treated thereon to dissolve formazan. Then, the absorbance at 560 nm was measured by using a spectrophotometer.

## WQNMRL [SEQ ID NO: 1]
β-catenin
  movement of β-catenin from the cytoplasm to the nucleus: increased
TGFβ-1
  expression of TGFβ-1: inhibit the expression of TGFβ-1
DKK-1
  expression of DKK-1: inhibit the expression of DKK-1
ERK
  phosphorylation of ERK: induced
AKT
  phosphorylation of AKT: induced
[1]
  proliferation of human dermal papilla cells (MTT, absorbance at 560 nm): promoted the proliferation of human dermal papilla cells
